Reference: ChEMBL document CHEMBL2385071, “Synthesis and biological investigation of coumarin piperazine (piperidine) derivatives as potential multireceptor atypical antipsychotics” (J Med Chem, 2013)

Key:
[1] = molecular target: T1, 5-hydroxytryptamine receptor 1A (Rattus norvegicus, UniProt P19327); test: biochemical
T1 sequence (P19327 whole entry): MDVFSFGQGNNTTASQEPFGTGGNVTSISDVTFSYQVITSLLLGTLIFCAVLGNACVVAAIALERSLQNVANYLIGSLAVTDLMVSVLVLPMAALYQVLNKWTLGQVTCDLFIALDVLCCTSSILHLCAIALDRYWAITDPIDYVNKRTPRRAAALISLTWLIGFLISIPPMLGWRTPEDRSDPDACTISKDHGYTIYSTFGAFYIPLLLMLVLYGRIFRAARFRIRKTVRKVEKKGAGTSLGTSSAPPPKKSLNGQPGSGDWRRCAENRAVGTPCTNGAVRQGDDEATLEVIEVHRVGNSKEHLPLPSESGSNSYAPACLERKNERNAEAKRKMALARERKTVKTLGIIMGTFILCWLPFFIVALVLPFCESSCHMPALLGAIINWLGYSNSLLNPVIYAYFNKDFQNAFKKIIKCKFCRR
Description: Displacement of [3H]8-OH-DPAT from 5HT1A receptor in rat cerebral cortex after 30 mins by liquid scintillation counting analysis

[2] = molecular target: 5-hydroxytryptamine receptor 2A (Rattus norvegicus, UniProt P14842); test: Displacement of [3H]ketanserin from 5HT2A receptor in rat cerebral cortex after 15 mins by liquid scintillation counting analysis; assay type: tissue-based
Sequence of 5-hydroxytryptamine receptor 2A (P14842 whole entry): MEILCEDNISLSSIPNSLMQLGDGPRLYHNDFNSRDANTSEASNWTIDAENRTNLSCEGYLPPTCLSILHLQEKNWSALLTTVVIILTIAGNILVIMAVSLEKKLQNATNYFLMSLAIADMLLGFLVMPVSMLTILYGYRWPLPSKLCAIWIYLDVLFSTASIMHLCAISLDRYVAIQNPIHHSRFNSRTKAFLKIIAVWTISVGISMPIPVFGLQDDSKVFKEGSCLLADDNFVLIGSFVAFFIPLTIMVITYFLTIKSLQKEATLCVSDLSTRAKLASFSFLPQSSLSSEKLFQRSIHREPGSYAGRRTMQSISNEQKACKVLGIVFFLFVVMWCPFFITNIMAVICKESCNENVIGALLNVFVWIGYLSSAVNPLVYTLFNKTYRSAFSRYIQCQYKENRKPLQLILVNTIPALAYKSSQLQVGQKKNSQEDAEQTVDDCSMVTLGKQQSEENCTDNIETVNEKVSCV

D(2) dopamine receptor = D(2) dopamine receptor (Rattus norvegicus, UniProt P61169)
Sequence of D(2) dopamine receptor (P61169 whole entry): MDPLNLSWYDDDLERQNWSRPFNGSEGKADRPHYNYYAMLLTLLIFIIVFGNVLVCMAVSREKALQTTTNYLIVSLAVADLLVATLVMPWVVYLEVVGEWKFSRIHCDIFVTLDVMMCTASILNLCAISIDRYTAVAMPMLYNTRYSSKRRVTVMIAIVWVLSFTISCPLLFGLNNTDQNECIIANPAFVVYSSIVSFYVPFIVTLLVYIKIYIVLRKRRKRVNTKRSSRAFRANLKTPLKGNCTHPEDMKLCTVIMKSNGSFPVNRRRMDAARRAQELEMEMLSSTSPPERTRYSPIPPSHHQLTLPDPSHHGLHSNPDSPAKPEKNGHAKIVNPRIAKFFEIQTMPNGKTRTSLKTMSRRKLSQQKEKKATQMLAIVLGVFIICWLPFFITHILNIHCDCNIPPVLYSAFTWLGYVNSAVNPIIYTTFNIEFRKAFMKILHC

Cc1cc(=O)oc2cc(OC/C=C/CN3CCC(c4noc5cc(F)ccc45)CC3)ccc12
Ki [1]: 44.5 nM
Ki [2]: 0.5 nM
Ki (D(2) dopamine receptor): 17.1 nM

Cc1ccc(S(=O)(=O)N2CCN(CCCCOc3ccc4c(C)cc(=O)oc4c3)CC2)cc1
Ki [1]: 1200 nM
Ki [2]: > 10000 nM
Ki (D(2) dopamine receptor): 1590 nM

COc1cccc(N2CCN(CCCCOc3ccc4c(C)cc(=O)oc4c3)CC2)c1
Ki [1]: 89.2 nM
Ki [2]: 469 nM
Ki (D(2) dopamine receptor): 156 nM

COc1ccccc1N1CCN(CCCCOc2ccc3c(C)cc(=O)oc3c2Cl)CC1
Ki [1]: 151 nM
Ki [2]: 588 nM
Ki (D(2) dopamine receptor): 119 nM

O=C1CC(c2ccccc2)c2ccc(OCCCCN3CCC(c4noc5cc(F)ccc45)CC3)cc2O1 (stereo unspecified)
Ki [1]: > 10000 nM
Ki [2]: 559 nM
Ki (D(2) dopamine receptor): 515 nM

CC(C)c1cc(=O)oc2cc(OCCCCN3CCC(c4noc5cc(F)ccc45)CC3)ccc12
Ki [1]: > 10000 nM
Ki [2]: > 10000 nM
Ki (D(2) dopamine receptor): 2350 nM

O=c1cc(-c2cccs2)c2ccc(OCCCCN3CCC(c4noc5cc(F)ccc45)CC3)cc2o1
Ki [1]: > 10000 nM
Ki [2]: > 10000 nM
Ki (D(2) dopamine receptor): 2350 nM

Cc1cc(=O)oc2cc(OCCCCN3CCC(c4nc5ccccc5o4)CC3)ccc12
Ki [1]: 1390 nM
Ki [2]: 1550 nM
Ki (D(2) dopamine receptor): > 10000 nM

O=c1cc(-c2ccccc2)c2ccc(OCC(O)CN3CCC(c4noc5cc(F)ccc45)CC3)cc2o1 (stereo unspecified)
Ki [1]: 692 nM
Ki [2]: 1570 nM
Ki (D(2) dopamine receptor): 987 nM

Cc1cc(=O)oc2cc(OCCCN3CCC(c4noc5cc(F)ccc45)CC3)ccc12
Ki [1]: 328 nM
Ki [2]: 140 nM
Ki (D(2) dopamine receptor): 116 nM

O=c1cc(C(F)(F)F)c2ccc(OCCCCN3CCC(c4noc5cc(F)ccc45)CC3)cc2o1
Ki [1]: 42.9 nM
Ki [2]: 228 nM
Ki (D(2) dopamine receptor): 3010 nM

Cc1cc(=O)oc2cc(OCCCCN3CCN(c4nsc5ccccc45)CC3)ccc12
Ki [1]: 113 nM
Ki [2]: 104 nM
Ki (D(2) dopamine receptor): 176 nM

Cc1cc(=O)oc2cc(OCCCCN3CCC(c4nc5ccccc5s4)CC3)ccc12
Ki [1]: 146 nM
Ki [2]: 215 nM
Ki (D(2) dopamine receptor): 242 nM

O=c1cc(C2CC2)c2ccc(OCCCCN3CCC(c4noc5cc(F)ccc45)CC3)cc2o1
Ki [1]: > 10000 nM
Ki [2]: > 10000 nM
Ki (D(2) dopamine receptor): > 10000 nM

Cc1cc(OCCCCN2CCC(c3noc4cc(F)ccc34)CC2)cc2oc(=O)cc(C)c12
Ki [1]: 18.9 nM
Ki [2]: 549 nM
Ki (D(2) dopamine receptor): 459 nM

COc1ccc(N2CCN(CCCCOc3ccc4c(C)cc(=O)oc4c3)CC2)cc1
Ki [1]: 530 nM
Ki [2]: 1010 nM
Ki (D(2) dopamine receptor): 412 nM

Cc1cc(=O)oc2cc(OCCCCN3CCN(c4cccc(C(F)(F)F)c4)CC3)ccc12
Ki [1]: 15.6 nM
Ki [2]: 157 nM
Ki (D(2) dopamine receptor): 143 nM

COc1ccccc1N1CCN(CCCCOc2ccc3ccc(=O)oc3c2)CC1
Ki [1]: 876 nM
Ki [2]: 1680 nM
Ki (D(2) dopamine receptor): 569 nM

O=c1cc(-c2ccc(F)cc2)c2ccc(OCCCCN3CCC(c4noc5cc(F)ccc45)CC3)cc2o1
Ki [1]: > 10000 nM
Ki [2]: > 10000 nM
Ki (D(2) dopamine receptor): 632 nM

Cc1cc(=O)oc2cc(OCCCCN3CCC(c4noc5cc(F)ccc45)CC3)c(Cl)cc12
Ki [1]: 17.2 nM
Ki [2]: 10.6 nM
Ki (D(2) dopamine receptor): > 10000 nM

COc1ccccc1N1CCN(CCCCOc2ccc3c(-c4ccccc4)cc(=O)oc3c2)CC1
Ki [1]: > 10000 nM
Ki [2]: > 10000 nM
Ki (D(2) dopamine receptor): > 10000 nM

Cc1cccc(N2CCN(CCCCOc3ccc4c(C)cc(=O)oc4c3)CC2)c1C
Ki [1]: 48.4 nM
Ki [2]: 259 nM
Ki (D(2) dopamine receptor): 1390 nM

COc1ccccc1N1CCN(CCCCOc2ccc3c(C)cc(=O)oc3c2C)CC1
Ki [1]: 112 nM
Ki [2]: 941 nM
Ki (D(2) dopamine receptor): 844 nM

Cc1cc(=O)oc2cc(OCC(O)CN3CCC(c4noc5cc(F)ccc45)CC3)ccc12 (stereo unspecified)
Ki [1]: 517 nM
Ki [2]: 453 nM
Ki (D(2) dopamine receptor): > 10000 nM

COc1ccccc1N1CCN(CCCCOc2ccc3c(CO)cc(=O)oc3c2)CC1
Ki [1]: > 10000 nM
Ki [2]: > 10000 nM
Ki (D(2) dopamine receptor): > 10000 nM

O=c1ccc2ccc(OCCCCN3CCC(c4noc5cc(F)ccc45)CC3)cc2o1
Ki [1]: 553 nM
Ki [2]: 1460 nM
Ki (D(2) dopamine receptor): 44.9 nM

COc1ccccc1N1CCN(CCCCOc2ccc3c(C(F)(F)F)cc(=O)oc3c2)CC1
Ki [1]: 41.8 nM
Ki [2]: 810 nM
Ki (D(2) dopamine receptor): > 10000 nM
